Data: ChEMBL document CHEMBL5050829, “Inhibitors of cytochrome P450 family 7 subfamily B member 1 (CYP7B1) for use in treating diseases” (2021)
The source made the active and inactive calls.

What was measured:
Mus musculus [1] = species: Mus musculus; test: Inhibition of Cyp7b1 in cigarette smoke extract (CSE)-stimulated mouse airways at 0.1 to 1 uM assessed as impairment of activated B-cell migration towards supernatant culture relative to control; assay type: tissue-based; conditions: Respiratory airway, dose 0.1-1 µM
Mus musculus [2] = species: Mus musculus; test: Inhibition of Cyp7b1 in cigarette smoke extract (CSE)-stimulated mouse airways at 1 uM assessed as impairment of activated B-cell migration towards supernatant culture relative to control; assay type: tissue-based; conditions: Respiratory airway
Mus musculus [3] = test: Protection against cigarette smoke-induced COPD in C57BL/6 mouse exposed with cigarette smoke for 4 months assessed as reduction in lung volume at 80 mg/kg, ip administered 3 times per week from 2 to 4 months; assay type: functional, organism-based
B cell [4] = test: Inhibition of Cyp7b1 in cigarette smoke extract (CSE) and LPS-stimulated mouse B cells at 0.3 to 1 uM assessed as reduction in cyp7b1 mRNA expression and measured by RT-PCR analysis relative to control; assay type: cell-based; conditions: dose 0.3-1 µM
Mus musculus [5] = test: Protection against cigarette smoke-induced COPD in C57BL/6 mouse exposed with cigarette smoke for 4 months assessed as reduction in emphysema in lungs at 80 mg/kg, ip administered 3 times per week from 2 to 4 months; assay type: functional, organism-based; conditions: Lung
Mus musculus [6] = species: Mus musculus; test: Inhibition of Cyp7b1 in cigarette smoke extract (CSE)-stimulated mouse airways at 1 uM assessed as reduction in Ch25h mRNA expression relative to control; assay type: tissue-based; conditions: Respiratory airway
Mus musculus [7] = test: Protection against cigarette smoke-induced COPD in C57BL/6 mouse exposed with cigarette smoke for 6 months assessed as reduction in macrophage count in BALF at 80 mg/kg, ip administered 3 times per week from 2 to 4 months; assay type: functional, organism-based
Mus musculus [8] = test: Protection against cigarette smoke-induced COPD in C57BL/6 mouse exposed with cigarette smoke for 6 months assessed as reduction in lung volume at 80 mg/kg, ip administered 3 times per week from 2 to 4 months; assay type: functional, organism-based
B cell [9] = test: Inhibition of Cyp7b1 in cigarette smoke extract (CSE) and LPS-stimulated mouse B cells at 0.3 to 1 uM assessed as reduction in TNF-alpha mRNA expression and measured by RT-PCR analysis relative to control; assay type: cell-based; conditions: dose 0.3-1 µM
B cell [10] = test: Inhibition of Cyp7b1 in cigarette smoke extract (CSE) and LPS-stimulated mouse B cells at 0.3 to 1 uM assessed as reduction in Ch25h mRNA expression and measured by RT-PCR analysis relative to control; assay type: cell-based; conditions: dose 0.3-1 µM
Mus musculus [11] = test: Protection against cigarette smoke-induced COPD in C57BL/6 mouse exposed with cigarette smoke for 6 months assessed as reduction in iBALT formation in lungs at 80 mg/kg, ip administered 3 times per week from 2 to 4 months; assay type: functional, organism-based; conditions: Lung
Mus musculus [12] = test: Protection against cigarette smoke-induced COPD in C57BL/6 mouse exposed with cigarette smoke for 4 months assessed as reduction in lymphocyte count in BALF at 80 mg/kg, ip administered 3 times per week from 2 to 4 months; assay type: functional, organism-based
Mus musculus [13] = species: Mus musculus; test: Inhibition of Cyp7b1 in cigarette smoke extract (CSE)-stimulated mouse airways at 1 uM assessed as reduction in cyp7b1 mRNA expression relative to control; assay type: tissue-based; conditions: Respiratory airway
Mus musculus [14] = test: Protection against cigarette smoke-induced COPD in C57BL/6 mouse exposed with cigarette smoke for 6 months assessed as reduction in emphysema in lungs at 80 mg/kg, ip administered 3 times per week from 2 to 4 months; assay type: functional, organism-based; conditions: Lung
Mus musculus [15] = test: Protection against cigarette smoke-induced COPD in C57BL/6 mouse exposed with cigarette smoke for 4 months assessed as reduction in iBALT formation in lungs at 80 mg/kg, ip administered 3 times per week from 2 to 4 months; assay type: functional, organism-based; conditions: Lung
Mus musculus [16] = test: Protection against cigarette smoke-induced COPD in C57BL/6 mouse exposed with cigarette smoke for 4 months assessed as reduction in macrophage count in BALF at 80 mg/kg, ip administered 3 times per week from 2 to 4 months; assay type: functional, organism-based

CC(C)c1nc(CN(C)C(=O)N[C@H](C(=O)N[C@@H](Cc2ccccc2)C[C@H](O)[C@H](Cc2ccccc2)NC(=O)OCc2cncs2)C(C)C)cs1
active: inhibition (Mus musculus [1])

Clc1ccc(COC(Cn2ccnc2)c2ccc(Cl)cc2Cl)c(Cl)c1 (stereo not drawn)
active: inhibition (Mus musculus [2])

CC(C)(C(=O)c1cccnc1)c1cccnc1
active: inhibition (Mus musculus [2])

Clc1ccccc1C(c1ccccc1)(c1ccccc1)n1ccnc1
inactive: inhibition (Mus musculus [6])
active: Activity (Mus musculus [3]) | inhibition (B cell [4]) | Activity (Mus musculus [5]) | Activity (Mus musculus [7]) | Activity (Mus musculus [8]) | inhibition (B cell [9]) | inhibition (B cell [10]) | Activity (Mus musculus [11]) | Activity (Mus musculus [12]) | inhibition (Mus musculus [13]) | Activity (Mus musculus [14]) | Activity (Mus musculus [15]) | Activity (Mus musculus [16]) | inhibition (Mus musculus [2])
